According to patent publication US12084420B2, “Indoline compounds for inhibiting KIF18A” (Volastra Therapeutics, Inc., priority 2021, dated 2024):
Where two headings read alike, the source gives them in different places.

What was measured:
HCC15 cells = experiment: Cell viability of KIF18a-sensitive cell lines, HCC15 (Cell Titre-Glo, 7 days); type: cell-based; conditions: read-out: HCC-15 IC50
Method: (§1) Cell Viability of KIF18a-Sensitive Cell Lines
(§2) Cell lines were seeded as follows 24 hours before compound treatment: HCC15 (Korean Cell Line Bank) 600 cell/well, 95 μL of RPMI-1640 media supplemented with 100 units/mL penicillin, 100 units/mL streptomycin and 10% FBS; NIH:OVCAR-3 (ATCC), 1000 cell/well, 95 μL of RPMI-1640 media supplemented with 100 units/mL penicillin, 100 units/mL streptomycin, 0.01 mg/mL bovine insulin, and 20% FBS; JIMT-1 (Addexbio) 1000 cell/well, 95 μL of DMEM media supplemented with 100 units/mL penicillin, 100 units/mL streptomycin, and 10% FBS.
(§3) Test compounds were added to cells in a 20× dilution scheme by adding 5 μL of serially diluted compound to the plate, and the treated cells were incubated for an additional 7 days in a 37° C., 5% CO2 incubator. DMSO was used as the negative control (0% effect), and wells omitting cells were used as the positive control (100% effect). The cells were incubated for seven days, and cell viability determined via the Promega Cell Titre-Glo® Assay kit. Luminescence units were converted to ATP concentrations via an ATP standard curve (10 point, 2-fold dilution from 5 uM). % Inhibition was calculated for each well as: ([max−min]−[test−min])/[max−min]. IC50 values were calculated from concentration vs. % Inhibition data via a four-parameter variable slope model.

JIMT-1 cells = experiment: Cell viability of KIF18a-sensitive cell lines, JIMT-1 (Cell Titre-Glo, 7 days); type: cell-based; conditions: JIMT-1 cells, 7 days, Cell Titre-Glo, read-out: JIMT-1 IC50
Method: as §1, §2, §3

NIH:OVCAR-3 cells = experiment: Cell viability of KIF18a-sensitive cell lines, NIH:OVCAR-3 (Cell Titre-Glo, 7 days); type: cell-based; conditions: NIH-OVCAR3 cells, 7 days, Cell Titre-Glo, read-out: NIH-OVCAR3 IC50
Method: as §1, §2, §3

[1] = biological target: KIF18a-Microtubule Complex (Homo sapiens (Human), UniProt Q8NI77); experiment: Binding kinetics to KIF18a-microtubule complex (global progress curve analysis); conditions: for koff (off-rate from binding kinetics assay) / kon (on-rate from binding kinetics assay): global progress curve analysis; for Ki: read-out: KI (determined from binding kinetic assay koff/kon), koff/kon; for koff: read-out: koff (off-rate from binding kinetics assay)
Method: Binding Kinetics to KIF18a-Microtubule Complex
Compound binding kinetics parameters (kon and koff) were determined by the method of global progress curve analysis (GPCA). […] ADP product levels were determined by the Promega® ADP-Glo assay. The time/dose-dependent progress curves were then globally fit to a Michaelis-Menten kinetics model with 1-step slow binding inhibition to derive both on-rate kon and off-rate koff values (Zhang, R., Wong, K. (2017): “High performance enzyme kinetics of turnover, activation and inhibition for translational drug discovery”, Expert Opinion on Drug Discovery, 2017 January; 12(1):17-37. doi: 10.1080/17460441.2017.1245721).

hKIF18A (1-374) = hKIF18A (1-374) (Homo sapiens (Human), UniProt Q8NI77); experiment: Inhibition of KIF18A microtubule-dependent ATPase activity (ADP-Glo)
Method: Biological Assays Inhibition of KIF18A Microtubule-Dependent ATPase Activity:
Test compounds were plated in a 3× dilution scheme in a 384-well plate. Assay buffer: 80 mM PIPES (pH 6.9), 1 mM MgCl2, 75 mM KCl, 1 mM EGTA, 1 mM DTT, 0.01% BSA, 0.005% Tween-20, 1 μM Taxol in H2O. […] After incubation at room temperature for 30 min, 2.5 μL of microtubule mix was added [0.2 mg/mL pre-formed microtubules, 2.0 mM ATP in assay buffer], the plate was centrifuged for 30 s and then incubated at 28° C. for 60 min. 5 μL of Promega® ADP-Glo Max R1 was added, the plate was centrifuged for 30 s, and the mixture incubated for 4 h at room temperature. 10 μL of Promega® ADP-Glo Max R2 was added, the plate centrifuged for 30 s, and incubated for 60 min at room temperature. Luminescence was measured with an Envision plate reader, and % Inhibition was calculated for each well as: ([max−min]−[test−min])/[max−min]. IC50 values were calculated from concentration vs. % Inhibition data via a four-parameter variable slope model.

[2] = HCC-15 cells, 7 days, Cell Titre-Glo
[3] = HCC15, 168 h, HCC-15 cells, 7 days, Cell Titre-Glo
[4] = KIF18A microtubule-dependent ATPase activity, biochemical assay

Chain of hKIF18A (1-374) (Q8NI77 whole entry, looked up): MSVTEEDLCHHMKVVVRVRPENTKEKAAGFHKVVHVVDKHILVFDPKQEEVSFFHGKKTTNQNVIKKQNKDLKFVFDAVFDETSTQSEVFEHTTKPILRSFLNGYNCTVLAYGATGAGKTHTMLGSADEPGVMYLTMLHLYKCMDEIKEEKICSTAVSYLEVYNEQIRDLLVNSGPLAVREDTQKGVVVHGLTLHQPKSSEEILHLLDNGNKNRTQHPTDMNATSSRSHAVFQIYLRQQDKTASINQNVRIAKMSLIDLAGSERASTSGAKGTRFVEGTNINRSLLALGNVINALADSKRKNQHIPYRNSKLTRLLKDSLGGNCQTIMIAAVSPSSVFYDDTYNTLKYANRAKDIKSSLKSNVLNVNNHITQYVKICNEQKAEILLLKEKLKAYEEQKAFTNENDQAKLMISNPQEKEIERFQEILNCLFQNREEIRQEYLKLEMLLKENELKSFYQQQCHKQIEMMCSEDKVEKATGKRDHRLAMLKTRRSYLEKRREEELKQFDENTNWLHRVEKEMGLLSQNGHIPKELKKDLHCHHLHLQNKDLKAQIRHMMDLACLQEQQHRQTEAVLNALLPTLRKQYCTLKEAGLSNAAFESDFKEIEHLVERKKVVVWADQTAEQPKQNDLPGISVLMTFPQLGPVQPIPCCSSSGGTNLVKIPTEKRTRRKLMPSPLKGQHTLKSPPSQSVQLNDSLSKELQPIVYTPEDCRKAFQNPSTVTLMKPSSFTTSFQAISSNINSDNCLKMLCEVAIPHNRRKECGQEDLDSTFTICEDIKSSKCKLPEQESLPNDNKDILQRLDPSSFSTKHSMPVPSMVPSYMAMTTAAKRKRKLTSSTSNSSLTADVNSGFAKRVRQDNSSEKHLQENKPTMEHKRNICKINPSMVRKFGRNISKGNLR
Chain of hKIF18A (1-374) (Q2XVP4 whole entry partner, looked up): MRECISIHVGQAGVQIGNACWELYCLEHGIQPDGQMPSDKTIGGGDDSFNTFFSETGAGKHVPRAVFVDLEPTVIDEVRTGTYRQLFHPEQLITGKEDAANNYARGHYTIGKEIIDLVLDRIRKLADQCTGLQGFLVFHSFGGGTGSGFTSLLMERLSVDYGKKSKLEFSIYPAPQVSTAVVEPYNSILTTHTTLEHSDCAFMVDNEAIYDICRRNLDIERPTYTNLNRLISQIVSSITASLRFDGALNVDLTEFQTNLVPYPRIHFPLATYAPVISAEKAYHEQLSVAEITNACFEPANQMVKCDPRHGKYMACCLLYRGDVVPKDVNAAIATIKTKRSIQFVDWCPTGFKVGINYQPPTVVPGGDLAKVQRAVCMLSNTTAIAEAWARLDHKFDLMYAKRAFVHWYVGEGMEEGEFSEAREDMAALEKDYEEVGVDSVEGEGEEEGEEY
Chain of hKIF18A (1-374) (P02554 whole entry partner, looked up): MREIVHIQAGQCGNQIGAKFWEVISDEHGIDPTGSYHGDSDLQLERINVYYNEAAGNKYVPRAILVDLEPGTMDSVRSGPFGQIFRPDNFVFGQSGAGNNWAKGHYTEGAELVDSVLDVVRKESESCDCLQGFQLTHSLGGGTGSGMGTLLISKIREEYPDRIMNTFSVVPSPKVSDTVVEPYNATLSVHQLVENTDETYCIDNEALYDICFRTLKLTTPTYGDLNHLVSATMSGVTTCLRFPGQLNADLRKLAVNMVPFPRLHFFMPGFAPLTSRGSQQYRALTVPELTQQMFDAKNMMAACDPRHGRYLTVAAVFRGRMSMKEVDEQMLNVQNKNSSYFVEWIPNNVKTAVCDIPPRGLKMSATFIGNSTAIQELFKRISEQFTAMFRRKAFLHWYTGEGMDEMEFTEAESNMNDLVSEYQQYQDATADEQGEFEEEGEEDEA
Chain of KIF18a-Microtubule Complex (Q8NI77 whole entry, looked up): as the sequence (Q8NI77 whole entry, looked up) above
Chain of KIF18a-Microtubule Complex (Q2XVP4 whole entry partner, looked up): as the sequence (Q2XVP4 whole entry partner, looked up) above
Chain of KIF18a-Microtubule Complex (P02554 whole entry partner, looked up): as the sequence (P02554 whole entry partner, looked up) above

| Compound | kon (on-rate from binding kinetics assay) [1] [M⁻¹ s⁻¹] | disc. t1/2 (dissociation half-life ln(2)/koff) [1] [h] | Ki [1] [nM] | IC50 (HCC15 cells; [3]) [nM] | IC50 (hKIF18A (1-374); [4]) [nM] | IC50 (NIH:OVCAR-3 cells; Homo sapiens, OVCAR-3, 168 h) [nM] | IC50 (JIMT-1 cells; Homo sapiens, 168 h) [nM] | also measured |
| --- | --- | --- | --- | --- | --- | --- | --- | --- |
| CS(=O)(=O)Nc1ccc2c(c1)C1(CCC3(CC3)CC1)CN2C(=O)c1ccc([C@H](O)C2CCCC2)o1 (single isomer, unassigned) [Compound 352a] |  |  |  |  |  |  |  | IC50 (HCC15 cells; [2]): 34 nM; IC50 (JIMT-1 cells): 40 nM; IC50 (NIH:OVCAR-3 cells): 45 nM |
| CC(C)(C)NS(=O)(=O)c1cccc(C(=O)N2C[C@]3(CC[C@H](C)CC3)c3cc(NS(C)(=O)=O)ccc32)c1 [Compound 140a] | 13100 | 29 | 0.5 |  |  |  |  | IC50 (HCC15 cells; [2]): 10 nM; koff (off-rate from binding kinetics assay) [1]: 6.67e-06 s⁻¹ |
| CCNc1ccc2c(c1)C1(CCC3(CC3)CC1)CN2C(=O)c1cccc(S(=O)(=O)N2CCC(F)(F)CC2)c1 [Compound 30, (3-((4,4-difluoropiperidin-1-yl)sulfonyl)phenyl)(5″-(ethylamino)dispiro[cyclopropane-1,1′-cyclohexane-4′,3″-indolin]-1″-yl)methanone] |  |  |  | 3500 | 180 | 1430 | 2300 |  |
| CC(C)(C)NS(=O)(=O)c1cccc(C(=O)N2CC3(CCC4(CC4)CC3)c3cc(NS(C)(=O)=O)c(F)cc32)c1 [Compound 309, N-(tert-butyl)-3-(6″-fluoro-5″-(methylsulfonamido)dispiro[cyclopropane-1,1′-cyclohexane-4′,3″-indoline]-1″-carbonyl)benzenesulfonamide] |  |  |  | 12 | 6.5 | 12 | 9.4 |  |
| CS(=O)(=O)Nc1ccc2c(c1)C1(CCC3(CC3)CC1)CN2C(=O)c1ccc([C@@H](O)C2CCCC2)o1 (single isomer, unassigned) [Compound 352b] |  |  |  |  |  |  |  | IC50 (HCC15 cells; [2]): 19 nM; IC50 (JIMT-1 cells): 19 nM; IC50 (NIH:OVCAR-3 cells): 27 nM |
| CS(=O)(=O)Nc1ccc2c(c1)C1(CCCCC1)CN2C(=O)c1cccc(S(=O)(=O)N2CCC(F)(F)CC2)c1 [Compound 19, N-(1′-(3-((4,4-difluoropiperidin-1-yl)sulfonyl)benzoyl)spiro[cyclohexane-1,3′-indolin]-5′-yl)methanesulfonamide] | 14200 | 7.2 | 1.8 | 92 | 32 |  |  | koff [1]: 2.67e-05 s⁻¹ |
| CC(C)(C)NS(=O)(=O)c1cccc(C(=O)N2CC3(CCC4(CC4)CC3)c3c2ccc(NS(C)(=O)=O)c3F)c1 [Compound 310, N-(tert-butyl)-3-(4″-fluoro-5″-(methylsulfonamido)dispiro[cyclopropane-1,1′-cyclohexane-4′,3″-indoline]-1″-carbonyl)benzenesulfonamide] |  |  |  | 11 | 6.6 | 9.1 | 7.9 |  |
| CC(C)(C)NS(=O)(=O)c1cccc(C(=O)N2CC3(CCC4(CC4)CC3)c3cc(NS(=O)(=O)CCO)ccc32)c1 [Compound 148, N-(tert-butyl)-3-(5″-((2-hydroxyethyl)sulfonamido)dispiro [cyclopropane-1,1′-cyclohexane-4′,3″- indoline]-1″- carbonyl)benzenesulfonamide] | 13600 | 48 | 0.29 | 36 | 12 |  |  | koff [1]: 3.89e-06 s⁻¹ |
| CC(C)(C)NS(=O)(=O)c1cccc(C(=O)N2C[C@]3(CC[C@@H](C)CC3)c3cc(NS(C)(=O)=O)ccc32)c1 [Compound 140b] | 16100 | 8.7 | 1.4 |  |  |  |  | IC50 (HCC15 cells; [2]): 45 nM; koff (off-rate from binding kinetics assay) [1]: 2.22e-05 s⁻¹ |
| CC1CCC2(CC1)CN(C(=O)c1cccc(S(=O)(=O)N3CCC(F)(F)CC3)c1)c1ccc(NS(C)(=O)=O)cc12 (stereo not shown) [Compound 24, N-(1′-(3-((4,4-difluoropiperidin-1-yl)sulfonyl)benzoyl)-4-methylspiro[cyclohexane-1,3′-indolin]-5′-yl)methanesulfonamide] |  |  |  | 23 |  |  |  | IC50 (hKIF18A (1-374)): 10 nM |
| CS(=O)(=O)Nc1ccc2c(c1)C1(CCCC1)CN2C(=O)c1cccc(S(=O)(=O)N2CCC(F)(F)CC2)c1 [Compound 18, N-(1′-(3-((4,4-difluoropiperidin-1-yl)sulfonyl)benzoyl)spiro[cyclopentane-1,3′-indolin]-5′-yl)methanesulfonamide] |  |  |  |  | 79 |  |  | IC50 (HCC15 cells; HCC15, 168 h): 160 nM |
| O=C(Nc1cccc(C(=O)N2CC3(CCCC3)c3c(F)cccc32)c1)NC1CC1 [Compound 2′, 1-cyclopropyl-3-(3-(4′-fluorospiro[cyclopentane-1,3′-indolin]-1′-carbonyl)phenyl)urea] |  |  |  | 2600 | 920 |  |  |  |

Now from value to molecule, other results behind:

| kon (on-rate from binding kinetics assay) [1] [M⁻¹ s⁻¹] | disc. t1/2 (dissociation half-life ln(2)/koff) [1] [h] | Ki [1] [nM] | IC50 (HCC15 cells; [3]) [nM] | IC50 (hKIF18A (1-374); [4]) [nM] | IC50 (NIH:OVCAR-3 cells; Homo sapiens, OVCAR-3, 168 h) [nM] | Compound | IC50 (JIMT-1 cells; Homo sapiens, 168 h) [nM] | also measured |
| --- | --- | --- | --- | --- | --- | --- | --- | --- |
|  |  |  | 94 | 25 | 110 | CC(C)(C)S(=O)(=O)Nc1cccc(C(=O)N2CC3(CCC4(CC4)CC3)c3cc(NS(C)(=O)=O)ccc32)c1 [Compound 355, 2-methyl-N-(3-(5″-(methylsulfonamido)dispiro[cyclopropane-1,1′-cyclohexane-4′,3″-indoline]-1″-carbonyl)phenyl)propane-2-sulfonamide] | 120 |  |
| 10000 | 3.0 | 6.5 | 590 | 30 |  | CS(=O)(=O)Nc1ccc2c(c1)C1(CCCCC1)CN2C(=O)c1cccc(S(=O)(=O)C2CCCCC2)c1 [Compound 70, N-(1′-(3-(cyclohexylsulfonyl)benzoyl)spiro[cyclohexane-1,3′-indolin]-5′-yl)methanesulfonamide] |  | koff [1]: 6.39e-05 s⁻¹ |
|  |  |  |  | 12 |  | CS(=O)(=O)Nc1ccc2c(c1)C1(CCC3(CC3)CC1)CN2C(=O)c1cccc(S(=N)(=O)C2CCCC2)c1 (single isomer, unassigned) [Compound 287b] |  | IC50 (HCC15 cells; [2]): 97 nM; IC50 (JIMT-1 cells): 64 nM; IC50 (NIH:OVCAR-3 cells): 33 nM |
| 30600 | 24 | 0.26 | 15 | 7.3 |  | CC1(NS(=O)(=O)c2cccc(C(=O)N3CC4(CCC5(CC5)CC4)c4cc(NS(C)(=O)=O)ccc43)c2)CCC1 [Compound 182, N-(1-methylcyclobutyl)-3-(5″- (methylsulfonamido)dispiro[cyclopropane-1,1′-cyclohexane-4′,3″-indoline]-1″-carbonyl)benzenesulfonamide] |  | koff [1]: 8.06e-06 s⁻¹ |
| 26700 | 61 | 0.12 | 13 | 6.8 |  | CS(=O)(=O)Nc1ccc2c(c1)C1(CCC3(CC3)CC1)CN2C(=O)c1cccc(S(=O)(=O)N2CC3(CCC3)C2)c1 [Compound 151, N-(1″-(3-((2-azaspiro[3.3]heptan-2-yl)sulfonyl)benzoyl)dispiro[cyclopropane-1,1′-cyclohexane-4′,3″-indolin]-5″- yl)methanesulfonamide] |  | koff [1]: 3.06e-06 s⁻¹ |
|  |  |  | 600 | 58 | 720 | CS(=O)(=O)Nc1ccc2c(c1)C1(CCCCC1)CN2C(=O)c1cccc(C(O)C2CCCC2)c1 (stereo not shown) [Compound 157, N-(1′-(3-(cyclopentyl(hydroxy)methyl)benzoyl)spiro[cyclohexane-1,3′-indolin]-5′-yl)methanesulfonamide] | 440 |  |
|  |  |  | 32 | 5.5 |  | CS(=O)(=O)Nc1ccc2c(c1)C1(CCC3(CC3)CC1)CN2C(=O)c1cccc(S(=O)(=O)NC2CC=CC2)c1 [Compound 172, N-(cyclopent-3-en-1-yl)-3-(5″- (methylsulfonamido)dispiro[cyclopropane-1,1′-cyclohexane-4′,3″-indoline]-1″-carbonyl)benzenesulfonamide] |  |  |
|  |  |  | 140 | 20 | 190 | CS(=O)(=O)Nc1ccc2c(c1)C1(CCC3(CC3)CC1)CN2C(=O)c1cccc(CN2CCC(F)(F)CC2)c1 [Compound 163, N-(1″-(3-((4,4-difluoropiperidin-1-yl)methyl)benzoyl)dispiro[cyclopropane-1,1′-cyclohexane-4′,3″-indolin]-5″- yl)methanesulfonamide] | 120 |  |
